# Measurements as given in US10842807B2, “Methods of treating neurodegenerative disorders comprising DNA methyltransferase inhibitors” (Washington University, priority 2016, dated 2020).
# “Also recorded” adds a separate entry of the source.
# Tests used:
# [1] = tested on: Htt-72Q-expressing primary cortical neurons; experiment: Cell death by nuclear morphology (Hoechst 33342); assay type: cell-based, mouse; conditions: vs. Htt-72Q (0 μM)
# Protocol: (§1) Mouse primary cortical and striatal neurons from embryonic day (E) 15.5 Swiss Webster mouse fetuses (Taconic) were first plated in the minimal essential medium (MEM) containing 10% FBS, 0.45% glucose, 1 mM sodium pyruvate, 2 mM glutamine, 20 U/ml penicillin and 20 μg/ml streptomycin, for 3 h and then maintained in serum-free Neurobasal medium (Life Technologies) containing NeuroCult™ SM1 neuronal supplement ([…] Technologies), 0.5 mM glutamine and 25 μM glutamate for the first 3 d in a humidified incubator (37° C. in 5% CO2). Half of the medium was replaced with Neurobasal medium with SM1 and 0.5 mM glutamine every 3 days. Primary cortical neurons plated on 96-well flat clear bottom black plates (Corning #3904) at 4×10^4 cells/well were infected with Htt exon1 expression lentivirus (Htt-25Q or Htt-72Q) or control empty vector lentivirus at 5 days in vitro (DIV 5). Primary striatal neurons plated on 96-well plates at 1×10^5 cells/well were infected with Htt exon1 expression lentivirus at DIV 4. Viral copy number was adjusted for transduction of neurons on the basis of titer measured using the Lenti-X qRT-PCR titration kit (Clontech), and equal numbers of viral particles of Htt-25Q and Htt-72Q expressing lentiviruses were used for transduction. For the experiments to test effects of DNMT inhibitors, neurons were treated with inhibitors six hours after Htt lentiviral infection. […]
# [2] = tested on: Htt-72Q-expressing primary cortical neurons; experiment: MTS cell viability assay in Htt-expressing primary cortical neurons; assay type: cell-based, mouse; conditions: for viability of Htt-72Q-expressing neurons (MTS assay): DIV 5 cortical neurons transduced with Htt lentivirus, treated with drug or DMSO (=0 μM), MTS at DIV 14, vs. Htt-72Q (0 μM)
# Protocol: Mouse primary cortical and striatal neurons from embryonic day (E) 15.5 Swiss Webster mouse fetuses (Taconic) were first plated in the minimal essential medium (MEM) containing 10% FBS, 0.45% glucose, 1 mM sodium pyruvate, 2 mM glutamine, 20 U/ml penicillin and 20 μg/ml streptomycin, for 3 h and then maintained in serum-free Neurobasal medium (Life Technologies) containing NeuroCult™ SM1 neuronal supplement ([…] Technologies), 0.5 mM glutamine and 25 μM glutamate for the first 3 d in a humidified incubator (37° C. in 5% CO2). Half of the medium was replaced with Neurobasal medium with SM1 and 0.5 mM glutamine every 3 days. Primary cortical neurons plated on 96-well flat clear bottom black plates (Corning #3904) at 4×10^4 cells/well were infected with Htt exon1 expression lentivirus (Htt-25Q or Htt-72Q) or control empty vector lentivirus at 5 days in vitro (DIV 5). Primary striatal neurons plated on 96-well plates at 1×10^5 cells/well were infected with Htt exon1 expression lentivirus at DIV 4. Viral copy number was adjusted for transduction of neurons on the basis of titer measured using the Lenti-X qRT-PCR titration kit (Clontech), and equal numbers of viral particles of Htt-25Q and Htt-72Q expressing lentiviruses were used for transduction. For the experiments to test effects of DNMT inhibitors, neurons were treated with inhibitors six hours after Htt lentiviral infection. One half of the media was changed every 3 days with media containing new drug. In knockdown experiments in Htt-expressing neurons, primary cortical neurons were cotransduced with Htt-expressing lentivirus and Dnmt shRNA or control shRNA lentivirus at DIV 5. pLKO.1-TRC1-luciferase (Luci) and pLKO.1-TRC2-LacZ were used as control for RNAi with pLKO.1-TRC1-Dnmt3a and pLKO.1-TRC2-Dnmt1, respectively. Lentiviral particles were prepared by transfecting 293LE cells with the lentiviral plasmid of interest along with packaging plasmid psPAX2 and envelope plasmid pCMV-SVG as described previously^86. Four days after transfection, viruses in the conditioned media were collected and purified using Lenti-X Concentrator (Clontech). Primary cortical neurons from BACHD mouse embryos (E15.5) were individually plated into separate wells and treated at DIV 4 with decitabine or vehicle for 3.5 days.
# [3] = tested on: mutant Htt aggregates in Htt-72Q-expressing primary cortical neurons; experiment: Mutant Htt aggregates, EM48 immunofluorescence and immunoblotting; assay type: cell-based, mouse
# Protocol: (FIG. 8A) DIV 5 mouse primary cortical neurons were infected with Htt-72Q lentivirus and treated with decitabine or vehicle (DMSO). […] (FIG. 8B) DIV 5cortical neurons were infected with Htt lentivirus and treated with decitabine (0.2 μM) or DMSO. Neurons were fixed at DIV 11-12 and subjected to indirect immunofluorescence with a specific mouse monoclonal Htt antibody EM48, which preferentially detects aggregated mutant protein. Nuclei were labeled with Hoechst 33342. Images were captured using an Operetta high-content imaging system (PerkinElmer) with a 20× objective lens. Bar 100 μm. (FIG. 8C) EM48 immunofluorescence intensity in (FIG. 8B) was quantified using an ImageJ-based macro. […] (FIG. 8D) Cortical neurons transduced and processed as in (FIG. 8A) were directly harvested in SDS sample buffer at DIV 10 and subjected to immunoblotting with anti-Htt EM48 monoclonal antibody. Blot was reprobed with anti-β-actin antibody. Representative immunoblot from 3 independent experiments is shown. […] Data in (FIG. 8A) and (FIG. 8C) are presented as mean+SEM.
# [4] = tested on: downregulated genes in mutant Htt-expressing striatal neurons; experiment: qRT-PCR of striatal genes in Htt-72Q primary striatal neurons; assay type: cell-based, mouse; conditions: Htt-72Q striatal neurons
# Protocol: Mouse primary cortical and striatal neurons from embryonic day (E) 15.5 Swiss Webster mouse fetuses (Taconic) were first plated in the minimal essential medium (MEM) containing 10% FBS, 0.45% glucose, 1 mM sodium pyruvate, 2 mM glutamine, 20 U/ml penicillin and 20 μg/ml streptomycin, for 3 h and then maintained in serum-free Neurobasal medium (Life Technologies) containing NeuroCult™ SM1 neuronal supplement ([…] Technologies), 0.5 mM glutamine and 25 μM glutamate for the first 3 d in a humidified incubator (37° C. in 5% CO2). Half of the medium was replaced with Neurobasal medium with SM1 and 0.5 mM glutamine every 3 days.
# [5] = target: T1, cytidine deaminase (Homo sapiens, UniProt P32320); conditions: literature refs 62, 64; cited from earlier work
# T1 construct: host or cells: liver (in vivo)
# [6] = tested on: Htt-72Q-expressing primary cortical neurons; experiment: Epigenetic drug library screen, resazurin (Alamar Blue) assay; assay type: cell-based, mouse; conditions: 0.02, 0.2, 2 μM added at DIV 6, resazurin at DIV 14; hits validated by MTS
# Protocol: As epigenetic gene regulation is a cell-type specific mechanism, we used a physiologically relevant, post-mitotic cortical neuron culture system for this screen. In this system, lentivirus-mediated expression of the exon 1-encoded N-terminal fragment of mutant Htt (Htt-72Q with a 72 glutamine repeat), but not wild-type (WT) Htt (Htt-25Q), induces neurotoxicity^38. […] In the drug screen, the viability of Htt-expressing cortical neurons was determined by the resazurin (Alamar Blue) assay, a quantitative measurement of mitochondrial metabolic activity, which correlates with cell viability.
# Epigenetic drug screen was performed using a primary cortical neuron model of HD with a drug library composed of 84 compounds (Table 1), among which 80 drugs are purchased from Cayman Chemical (Epigenetic Screening Library Item No 11076) and four drugs, SGC0946, EPZ5676, EPZ6438, and GSK126, were obtained from Xcessbio Biosciences Inc. Mouse primary cortical neurons were plated on 96-well flat clear bottom black plates (Corning #3904). WT or mutant Htt exon1 fragment (Htt-25Q or Htt-72Q)-expressing lentiviruses are infected at DIV 5 as described above. The 84 compounds were added to the media at DIV 6 one day after Htt lentiviral infection with three different doses (0.02, 0.2, 2 μM) for each compound at triplicates. DMSO was used as control. Media containing compounds or DMSO were changed every three days to maintain the compounds' activity. At DIV 14, the viability of neurons was determined by resazurin (Alamar blue) assay, a quantitative measurement of mitochondrial metabolic activity. The screen was fully automated and performed in the High-Throughput Screening Center in Washington University School of Medicine. Any possible plate effects were determined using control plates treated with DMSO and used for normalization. Screen hits were validated by MTS assay.
# [7] = cited from earlier work
# [8] = literature refs 64, 65; cited from earlier work
# [9] = tested on: Htt-72Q-expressing primary striatal neurons; experiment: Neurofilament (NF) immunofluorescence, neurite degeneration in striatal neurons; assay type: cell-based, mouse; conditions: DIV 4 striatal neurons transduced, fixed seven days later; vs. Htt-72Q (0 μM)
# Protocol: as §1, with “transduction.” for “transduction. For the experiments to test effects of DNMT inhibitors, neurons were treated with inhibitors six hours after Htt lentiviral infection.”
# (§2) For the measurement of neurofilament (NF) immunofluorescence intensity, cortical and striatal neurons cultured in a 96-well plate were fixed in 4% paraformaldehyde (PFA) in PBS for 20 min nine and seven days after Htt lentiviral infection, respectively, permeabilized with 0.1% Triton X-100 in PBS for 15 min at room temperature, and subjected to indirect immunofluorescence with anti-NF (2H3) primary antibody and Alexa Fluor 568-conjugated goat anti-mouse IgG secondary antibody (Life Technologies). […] Following image background subtraction, the NF immunofluorescence intensity was quantified using an ImageJ-based macro. Image capture and quantification of Htt (EM48) immunofluorescence intensity were performed as described for those of NF. […] About 300 nuclei from three random fields in a well were counted. […]
# [10] = tested on: Htt-72Q-expressing primary cortical neurons; experiment: Neurofilament (NF) immunofluorescence, neurite degeneration in cortical neurons; assay type: cell-based, mouse; conditions: fixed at DIV 14; vs. Htt-72Q (0 μM)
# Protocol: as §1, with “transduction.” for “transduction. For the experiments to test effects of DNMT inhibitors, neurons were treated with inhibitors six hours after Htt lentiviral infection.”
# as §2
# [11] = Htt-72Q cortical neurons, MTS assay (FIG. 1B)
# T1 sequence (P32320 whole entry, species assumed): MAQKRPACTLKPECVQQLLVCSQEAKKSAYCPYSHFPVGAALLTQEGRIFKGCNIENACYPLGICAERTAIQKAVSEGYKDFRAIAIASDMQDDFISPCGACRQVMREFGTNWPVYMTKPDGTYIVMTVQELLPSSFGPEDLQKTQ
smiles,measurement,setting,value
"Nc1ncn([C@H]2C[C@H](O)[C@@H](CO)O2)c(=O)n1 [decitabine, 5-aza-2′-deoxycytidine]",Htt-72Q induced cell death (condensed or fragmented nuclei),[1],blocked Htt-72Q induced cell death
same,viability of Htt-72Q-expressing neurons (MTS assay),[2],increased the viability of Htt-72Q-expressing neurons; also recorded: increased the viability of mutant Htt-expressing neurons
same,concentration giving nearly full protection,[2]; [11],0.2 µM
same,lowest concentration with significant neuroprotection,[2]; [11],0.02 µM
same,levels of mutant Htt aggregates (EM48 immunofluorescence intensity),"[3]; 0.2 μM, fixed at DIV 11-12, vs. Htt-72Q-DMSO",significantly decreased the levels of mutant Htt aggregates
same,aggregated high molecular weight mutant Htt in stacking gel (EM48 immunoblot),[3]; harvested at DIV 10,could decrease the levels of aggregated high molecular weight mutant Htt
same,mRNA levels of Kdm8 (specificity control),[4],unchanged
same,"expression of downregulated genes (Drd2, Ppp1r1b, Penk, Pcp4, Rasd2)","[4]; RNA 5 days after infection, vs. Htt-72Q plus vehicle",restored the expression of downregulated genes
same,degradation by cytidine deaminase in the liver,[5],degraded rapidly
same,outcome in epigenetic drug screen (84 compounds),[6],the most effective drug
same,blood-brain barrier crossing,"[7]; literature refs 62, 63",reported to cross the blood-brain barrier
same,in vivo half-life,"[7]; literature refs 62, 64",< 20 min
same,in vitro stability as reported previously,[8],instability
same,"mutant Htt-induced neurite degeneration (NF immunofluorescence intensity), striatal neurons",[9],protected neurons from mutant Htt-induced neurite degeneration
same,"Htt-72Q-induced neurite degeneration (NF immunofluorescence intensity), cortical neurons",[10],blocked Htt-72Q-induced neurite degeneration
"Nc1nc(=O)n([C@H]2C[C@H](O)[C@@H](CO)O2)cc1F [FdCyd, 5-fluoro-2′-deoxycytidine]",viability of Htt-72Q-expressing neurons (MTS assay),[2],increased the viability of Htt-72Q-expressing neurons
same,"mutant Htt-induced neurite degeneration (NF immunofluorescence intensity), striatal neurons",[9],protected neurons from mutant Htt-induced neurite degeneration
same,"Htt-72Q-induced neurite degeneration (NF immunofluorescence intensity), cortical neurons",[10],protected neurons from Htt-72Q-induced neurite degeneration
